Measured values published in ChEMBL document CHEMBL3217585, “A rational design to create hybrid -sheet breaker peptides to inhibit aggregation and toxicity of amyloid-” (Medchemcomm, 2011).
*1 amine or outer side, *2 acyl side, *3 side chain or, on linkers, in order; H or OH if unused. Where a SMILES comes first, the peptide text is derived from it. The star is where a group is joined. X7 = O=C(OC[C@@H](COS(=O)(=O)O)OS(=O)(=O)O)*; X6 = O=C(OC[C@H](COS(=O)(=O)O)OS(=O)(=O)O)*; X12 = O=S(=O)(O)OC[C@H](CN*)OS(=O)(=O)O; X2 = O=S(=O)(O)OC[C@@H](CN*)OS(=O)(=O)O; NH(3-hydroxypropyl) = OCCCN*; X3 = O=C(OCCCOS(=O)(=O)O)*; X10 = O=C(OC[C@@H](O)CO)*; X11 = O=C(OC[C@H](O)CO)*; X9 = O=S(=O)(O)OCCCCN*; X5 = O=S(=O)(O)OCCCN*; CO = O=C([*:1])[*:2]; NH(CH2)4OH = OCCCCN*; X14 = OC[C@H](O)CN*; X4 = OC[C@@H](O)CN*; X13 = O=C(OCCCO)*

Columns and labels:
[1] = Cytotoxicity against HBP assessed as cell death at 50 uM after 6 days by fluorescence assay; details: human, 144 h
[2] = biological target: Amyloid-beta precursor protein (Homo sapiens) (UniProt P05067); assay: Inhibition of amyloid beta (1 to 42)-mediated cytotoxicity in HBP assessed as cell death at 1:5 protein to compound ratio after 6 days by fluorescence assay relative to control; parameters: scale not given: the % may be the effect or the level left
[3] = biological target: Amyloid-beta precursor protein (Homo sapiens) (UniProt P05067); assay: Inhibition of amyloid beta (1 to 42) aggregation in HBP assessed as beta sheet formation at 1:20 protein to compound ratio after 48 hrs by Th-T fluorescence assay relative to control; parameters: scale not given: the % may be the effect or the level left
[4] = biological target: Amyloid-beta precursor protein (Homo sapiens) (UniProt P05067); assay: Inhibition of monomeric amyloid beta (unknown origin) aggregation at 1:20 protein to compound ratio relative to control; details: concentration not given here
[5] = biological target: Amyloid-beta precursor protein (Homo sapiens) (UniProt P05067); assay: Inhibition of monomeric amyloid beta (unknown origin)-mediated cytotoxicity at 1:5 protein to compound ratio by cell-based assay relative to control; details: concentration not given here

Amyloid-beta precursor protein (Homo sapiens), sequence (P05067 whole entry): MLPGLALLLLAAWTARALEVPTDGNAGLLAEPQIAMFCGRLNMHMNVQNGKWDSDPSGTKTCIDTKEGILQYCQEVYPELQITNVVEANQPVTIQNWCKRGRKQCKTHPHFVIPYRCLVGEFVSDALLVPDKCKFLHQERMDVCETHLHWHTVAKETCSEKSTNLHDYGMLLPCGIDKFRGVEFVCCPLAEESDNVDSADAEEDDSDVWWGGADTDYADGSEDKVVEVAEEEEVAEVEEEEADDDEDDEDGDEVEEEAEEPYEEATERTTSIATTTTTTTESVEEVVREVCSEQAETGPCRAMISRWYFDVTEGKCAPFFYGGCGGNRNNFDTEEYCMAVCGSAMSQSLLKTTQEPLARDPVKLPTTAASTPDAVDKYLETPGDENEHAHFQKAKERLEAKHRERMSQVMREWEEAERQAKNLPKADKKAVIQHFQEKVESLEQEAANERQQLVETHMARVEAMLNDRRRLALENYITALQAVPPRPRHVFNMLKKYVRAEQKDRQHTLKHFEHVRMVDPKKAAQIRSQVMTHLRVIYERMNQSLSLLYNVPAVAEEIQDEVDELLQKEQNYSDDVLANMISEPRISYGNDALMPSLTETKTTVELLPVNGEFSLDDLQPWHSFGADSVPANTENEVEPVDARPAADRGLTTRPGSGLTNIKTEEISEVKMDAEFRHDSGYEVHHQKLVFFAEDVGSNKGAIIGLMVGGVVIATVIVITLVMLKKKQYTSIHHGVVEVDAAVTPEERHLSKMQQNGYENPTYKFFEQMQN

Compound | Activity [3] | inhibition [4] | Activity [1] | Activity [2] | inhibition [5]
CC(C)C[C@H](NC(=O)OCC(CO)CO)C(=O)N1CCC[C@H]1C(=O)N[C@@H](Cc1ccccc1)C(=O)N[C@@H](Cc1ccccc1)C(=O)N[C@@H](CC(=O)O)C(=O)O | 76.4% |  | Non-toxic | 81.1% | 
CC(C)C[C@H](NC(=O)OCC(COS(=O)(=O)O)CS(=O)(=O)O)C(=O)N1CCC[C@@H]1C(=O)N[C@@H](Cc1ccccc1)C(=O)N[C@@H](Cc1ccccc1)C(=O)N[C@@H](CC(=O)O)C(=O)O (some centres undefined) | 94.7% |  |  | 93.8% | 
CC(C)C[C@H](NC(=O)OCCCOS(=O)(=O)O)C(=O)N1CCC[C@H]1C(=O)N[C@@H](Cc1ccccc1)C(=O)N[C@@H](Cc1ccccc1)C(=O)N[C@@H](CC(=O)O)C(N)=O (X3-LPFFD-NH2) | 107% |  |  | 107% | 
CC(C)C[C@H](NC(=O)OC[C@H](COS(=O)(=O)O)OS(=O)(=O)O)C(=O)N1CCC[C@H]1C(=O)N[C@@H](Cc1ccccc1)C(=O)N[C@@H](Cc1ccccc1)C(=O)N[C@@H](CC(=O)O)C(N)=O (X6-LPFFD-NH2) | 95.1% |  |  | 91.4% | 
CC(C)C[C@H](NC(=O)OC[C@@H](COS(=O)(=O)O)OS(=O)(=O)O)C(=O)N1CCC[C@H]1C(=O)N[C@@H](Cc1ccccc1)C(=O)N[C@@H](Cc1ccccc1)C(=O)N[C@@H](CC(=O)O)C(N)=O (X7-LPFFD-NH2) | 96.3% |  |  | 95.9% | 
CC(C)C[C@H](NC(=O)OC[C@@H](O)CO)C(=O)N1CCC[C@H]1C(=O)N[C@@H](Cc1ccccc1)C(=O)N[C@@H](Cc1ccccc1)C(=O)N[C@@H](CC(=O)O)C(N)=O (X10-LPFFD-NH2) | 97% |  |  | 89.7% | 
CC(C)C[C@H](NC(=O)NCCCO)C(=O)N1CCC[C@H]1C(=O)N[C@@H](Cc1ccccc1)C(=O)N[C@@H](Cc1ccccc1)C(=O)N[C@@H](CC(=O)O)C(N)=O ({NH(3-hydroxypropyl)-CO}-LPFFD-NH2) | 82.7% |  |  | 96.1% | 
CC(C)C[C@H](NC(=O)NCCCCO)C(=O)N1CCC[C@H]1C(=O)N[C@@H](Cc1ccccc1)C(=O)N[C@@H](Cc1ccccc1)C(=O)N[C@@H](CC(=O)O)C(N)=O ({NH(CH2)4OH-CO}-LPFFD-NH2) | 100% |  |  | 99.6% | 
CC(C)C[C@H](NC(=O)NCCCCOS(=O)(=O)O)C(=O)N1CCC[C@H]1C(=O)N[C@@H](Cc1ccccc1)C(=O)N[C@@H](Cc1ccccc1)C(=O)N[C@@H](CC(=O)O)C(N)=O ({X9-CO}-LPFFD-NH2) | 100% |  |  | 96.5% | 
CC(C)C[C@H](NC(=O)NC[C@@H](COS(=O)(=O)O)OS(=O)(=O)O)C(=O)N1CCC[C@H]1C(=O)N[C@@H](Cc1ccccc1)C(=O)N[C@@H](Cc1ccccc1)C(=O)N[C@@H](CC(=O)O)C(N)=O ({X12-CO}-LPFFD-NH2) | 127% |  |  | 92% | 
CC(C)C[C@H](NC(=O)NC[C@@H](O)CO)C(=O)N1CCC[C@H]1C(=O)N[C@@H](Cc1ccccc1)C(=O)N[C@@H](Cc1ccccc1)C(=O)N[C@@H](CC(=O)O)C(N)=O ({X14-CO}-LPFFD-NH2) | 98.7% |  |  | 96.6% | 
Ac-LPFFD-NH2 | 51.9% | 50% |  | 51.8% | 50%

Further lines, with some results ahead:

Activity [3] | inhibition [4] | Compound | Activity [1] | Activity [2] | inhibition [5]
87.9% |  | CC(C)C[C@H](NC(=O)OCC(CO)CO)C(=O)N1CCC[C@@H]1C(=O)N[C@@H](Cc1ccccc1)C(=O)N[C@@H](Cc1ccccc1)C(=O)N[C@@H](CC(=O)O)C(=O)O |  | 94.8% | 
100% |  | CC(C)C[C@H](NC(=O)OC[C@H](O)CO)C(=O)N1CCC[C@H]1C(=O)N[C@@H](Cc1ccccc1)C(=O)N[C@@H](Cc1ccccc1)C(=O)N[C@@H](CC(=O)O)C(N)=O (X11-LPFFD-NH2) |  | 91.6% | 
92.9% |  | CC(C)C[C@H](NC(=O)OCCCO)C(=O)N1CCC[C@H]1C(=O)N[C@@H](Cc1ccccc1)C(=O)N[C@@H](Cc1ccccc1)C(=O)N[C@@H](CC(=O)O)C(N)=O (X13-LPFFD-NH2) |  | 93% | 
120% |  | CC(C)C[C@H](NC(=O)NC[C@H](COS(=O)(=O)O)OS(=O)(=O)O)C(=O)N1CCC[C@H]1C(=O)N[C@@H](Cc1ccccc1)C(=O)N[C@@H](Cc1ccccc1)C(=O)N[C@@H](CC(=O)O)C(N)=O ({X2-CO}-LPFFD-NH2) |  | 92% | 
98.7% |  | CC(C)C[C@H](NC(=O)NC[C@H](O)CO)C(=O)N1CCC[C@H]1C(=O)N[C@@H](Cc1ccccc1)C(=O)N[C@@H](Cc1ccccc1)C(=O)N[C@@H](CC(=O)O)C(N)=O ({X4-CO}-LPFFD-NH2) |  | 92.5% | 
83% |  | CC(C)C[C@H](NC(=O)NCCCOS(=O)(=O)O)C(=O)N1CCC[C@H]1C(=O)N[C@@H](Cc1ccccc1)C(=O)N[C@@H](Cc1ccccc1)C(=O)N[C@@H](CC(=O)O)C(N)=O ({X5-CO}-LPFFD-NH2) |  | 95.9% | 
